“Also recorded” adds a separate entry of the source.
What was measured:
[1] = molecular target: T1, 5HT2A (Homo sapiens, UniProt P28223); assay: Radioreceptor competition/saturation binding, 5HT2A ([3H]-ketanserin); conditions: competitive binding; for nH: Hill slope; for Ki: wild type receptor transiently expressed (FIG. 1: HEK 293 cells)
Description: (§1) Cells are grown at 37° C. in a humidified incubator with 5% CO2. The cDNAs encoding the human 5-HT2A, 5-HT2B, and 5-HT2C receptors (wild type) are purchased from UMR (Rolla, Mo.) for transient transfection of the clonal cells. For radioreceptor binding assays, 5-HT2A, 5-HT2B, and 5-HT2C receptor membranes are prepared from transfected CHO-K1 cells. For functional assays measuring activity of PLC/IP formation, transfected CHO-K1 cells are used for 5-HT2A and 5-HT2C receptors. […] Twenty-four hours before transfection, cells are seeded at 40% confluence in 100 mm dishes for radioreceptor binding assays or at 10^5 cells per well in 12-well plates for functional assays. CHO-K1 cells are transiently transfected with 12 μg of plasmid and 32 μl of lipofectamine (Invitrogen) per 100 mm dish for radioreceptor binding assays, or, 0.8 μg plasmid and 4.0 μl of lipofectamine per well for functional assays. For 5-HT2B functional assays using HEK cells, 24 μg plasmid DNA is mixed with 60 μl of Lipofectamine 2000 (Invitrogen) to transfect 1-2×10^6 cells in a 10-cm plate. Cells are allowed to express transfected receptors for another 24 hrs (Herrick, 1997).
(§2) Radioreceptor saturation and competition binding assays are performed using membrane homogenates, similar to our methods reported previously for the phylogenetically closely related histamine H1 GPCR (Booth, 2002; Moniri et al., 2004). […] Briefly, forty-eight hours following CHO cell transfection, cells are harvested and homogenized in 50 mM Tris-HCl containing 0.1% ascorbic acid and 4.0 mM CaCl2 at pH 7.4 (assay buffer). The homogenate is centrifuged at 35,000 g for 25 min and the resulting membrane pellet is re-suspended in assay buffer. Protein concentration is determined by the method of Lowry et al. (Lowry, 1951). […] Incubation of radioreceptor binding assay mixtures is for 1.0 h at 37° C., with termination by rapid filtration through Whatman GF/B filters using a 96-well cell harvester (Tomtec, Hamden, Conn.). The membrane-bound [^3H]-radioligand retained on the filter discs is quantified by liquid scintillation spectrometry. Data are analyzed by nonlinear regression using the sigmoidal curve-fitting algorithms in Prism 4.03 (GraphPad Software Inc., San Diego, Calif.). Ligand affinity is expressed as an approximation of Ki values by conversion of the IC50 data to K0.5 values using the equation K0.5=IC50/1+L/KD, where L is the concentration of radioligand having affinity KD (Cheng, 1973).

[2] = molecular target: T2, 5HT2B (Homo sapiens, UniProt P41595); assay: Radioreceptor competition/saturation binding, 5HT2B ([3H]-mesulergine); conditions: competitive binding; for nH: Hill slope; for Ki: wild type receptor transiently expressed (FIG. 1: HEK 293 cells)
T2 sequence (P41595 whole entry): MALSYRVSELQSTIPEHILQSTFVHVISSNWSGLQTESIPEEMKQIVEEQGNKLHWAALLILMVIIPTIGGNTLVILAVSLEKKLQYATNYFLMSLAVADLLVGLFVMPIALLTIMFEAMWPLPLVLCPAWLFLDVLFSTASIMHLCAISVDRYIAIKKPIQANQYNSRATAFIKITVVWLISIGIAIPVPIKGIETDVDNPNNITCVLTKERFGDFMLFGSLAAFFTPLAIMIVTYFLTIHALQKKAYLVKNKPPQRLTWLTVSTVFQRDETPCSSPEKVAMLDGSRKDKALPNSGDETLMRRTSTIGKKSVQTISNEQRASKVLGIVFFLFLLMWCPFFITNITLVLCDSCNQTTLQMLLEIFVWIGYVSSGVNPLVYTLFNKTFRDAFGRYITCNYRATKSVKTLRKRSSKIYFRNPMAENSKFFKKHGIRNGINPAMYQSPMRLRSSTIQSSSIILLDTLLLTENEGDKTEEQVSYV
Description: as §1, §2

[3] = molecular target: T3, 5HT2C (Homo sapiens, UniProt P28335); assay: Radioreceptor competition/saturation binding, 5HT2C ([3H]-mesulergine); conditions: competitive binding; for nH: Hill slope; for Ki: wild type receptor transiently expressed (FIG. 1: HEK 293 cells)
T3 sequence (P28335 33-458): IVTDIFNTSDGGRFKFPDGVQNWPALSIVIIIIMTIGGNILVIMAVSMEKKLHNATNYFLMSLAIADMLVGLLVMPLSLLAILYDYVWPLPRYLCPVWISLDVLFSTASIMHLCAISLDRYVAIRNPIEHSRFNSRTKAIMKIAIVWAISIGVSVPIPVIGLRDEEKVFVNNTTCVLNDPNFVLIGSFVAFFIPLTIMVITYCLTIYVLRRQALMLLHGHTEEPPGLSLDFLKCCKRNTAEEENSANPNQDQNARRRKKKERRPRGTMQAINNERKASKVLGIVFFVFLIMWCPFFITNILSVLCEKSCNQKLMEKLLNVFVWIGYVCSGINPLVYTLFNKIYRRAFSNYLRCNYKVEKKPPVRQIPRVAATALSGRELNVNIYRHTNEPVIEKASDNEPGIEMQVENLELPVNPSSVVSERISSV
Description: as §1, §2

[4] = molecular target: T4, Histamine H1 WT (Homo sapiens, UniProt P35367); assay: Competitive binding, histamine H1 receptor; conditions: Hill slope
T4 construct: expressed in transfected cells
T4 sequence (P35367 whole entry): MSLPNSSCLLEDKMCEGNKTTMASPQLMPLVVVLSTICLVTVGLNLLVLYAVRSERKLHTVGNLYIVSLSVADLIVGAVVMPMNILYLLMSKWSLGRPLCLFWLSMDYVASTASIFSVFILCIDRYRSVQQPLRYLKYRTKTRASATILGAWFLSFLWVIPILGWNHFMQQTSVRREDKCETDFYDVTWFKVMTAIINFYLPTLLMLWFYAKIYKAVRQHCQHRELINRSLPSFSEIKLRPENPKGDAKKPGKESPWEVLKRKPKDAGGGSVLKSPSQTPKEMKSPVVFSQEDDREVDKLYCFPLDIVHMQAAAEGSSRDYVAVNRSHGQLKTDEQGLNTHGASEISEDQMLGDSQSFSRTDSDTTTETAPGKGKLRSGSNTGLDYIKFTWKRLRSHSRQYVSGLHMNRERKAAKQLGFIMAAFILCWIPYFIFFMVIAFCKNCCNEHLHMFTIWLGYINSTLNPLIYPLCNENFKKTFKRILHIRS
Description: as §2

[5] = molecular target: T1, 5HT2A; assay: PLC activity/[3H]-IP formation, 5HT2A; type: cell-based
Description: (§3) Cells are grown at 37° C. in a humidified incubator with 5% CO2. The cDNAs encoding the human 5-HT2A, 5-HT2B, and 5-HT2C receptors (wild type) are purchased from UMR (Rolla, Mo.) for transient transfection of the clonal cells. For radioreceptor binding assays, 5-HT2A, 5-HT2B, and 5-HT2C receptor membranes are prepared from transfected CHO-K1 cells. For functional assays measuring activity of PLC/IP formation, transfected CHO-K1 cells are used for 5-HT2A and 5-HT2C receptors. For 5HT2B receptors, however, more robust and consistent results for the PLC/IP assay are obtained using transfected HEK cells (Setola et al., 2005). Twenty-four hours before transfection, cells are seeded at 40% confluence in 100 mm dishes for radioreceptor binding assays or at 10^5 cells per well in 12-well plates for functional assays. CHO-K1 cells are transiently transfected with 12 μg of plasmid and 32 μl of lipofectamine (Invitrogen) per 100 mm dish for radioreceptor binding assays, or, 0.8 μg plasmid and 4.0 μl of lipofectamine per well for functional assays. For 5-HT2B functional assays using HEK cells, 24 μg plasmid DNA is mixed with 60 μl of Lipofectamine 2000 (Invitrogen) to transfect 1-2×10^6 cells in a 10-cm plate. Cells are allowed to express transfected receptors for another 24 hrs (Herrick, 1997).
(§4) Functional activation of PLC is measured as [^3H]-IP formation in CHO cells transiently expressing serotonin 5-HT2C receptors or HEK cells transiently expressing serotonin 5-HT2A or 5-HT2B receptors, as previously reported (Moniri et al., 2004). Briefly, thirty-two hours following transfection, cells in inositol-free Dulbecco's modified Eagle's medium (DMEM) are incubated for twelve hours with 1.0 μCi/ml myo-[2-^3H]-inositol, the radiolabeled precursor of the PLC-β substrate phosphatidylinositol. […]
(§5) Functional activation of PLC is measured as [^3H]-IP formation in CHO cells transiently expressing 5-HT2A or 5-HT2C receptors and HEK cells transiently expressing 5HT2B receptors, as previously reported by our lab (Booth, 2002; Moniri et al., 2004). […]

[6] = molecular target: T2, 5HT2B; assay: PLC activity/[3H]-IP formation, 5HT2B; type: cell-based
Description: as §1

[7] = molecular target: RSK 2 (Homo sapiens, UniProt P51812); assay: Kinase affinity panel (labeled tag binding), RSK 2; conditions: at concentrations up to 1.0 uM
Sequence of RSK 2 (P51812 whole entry): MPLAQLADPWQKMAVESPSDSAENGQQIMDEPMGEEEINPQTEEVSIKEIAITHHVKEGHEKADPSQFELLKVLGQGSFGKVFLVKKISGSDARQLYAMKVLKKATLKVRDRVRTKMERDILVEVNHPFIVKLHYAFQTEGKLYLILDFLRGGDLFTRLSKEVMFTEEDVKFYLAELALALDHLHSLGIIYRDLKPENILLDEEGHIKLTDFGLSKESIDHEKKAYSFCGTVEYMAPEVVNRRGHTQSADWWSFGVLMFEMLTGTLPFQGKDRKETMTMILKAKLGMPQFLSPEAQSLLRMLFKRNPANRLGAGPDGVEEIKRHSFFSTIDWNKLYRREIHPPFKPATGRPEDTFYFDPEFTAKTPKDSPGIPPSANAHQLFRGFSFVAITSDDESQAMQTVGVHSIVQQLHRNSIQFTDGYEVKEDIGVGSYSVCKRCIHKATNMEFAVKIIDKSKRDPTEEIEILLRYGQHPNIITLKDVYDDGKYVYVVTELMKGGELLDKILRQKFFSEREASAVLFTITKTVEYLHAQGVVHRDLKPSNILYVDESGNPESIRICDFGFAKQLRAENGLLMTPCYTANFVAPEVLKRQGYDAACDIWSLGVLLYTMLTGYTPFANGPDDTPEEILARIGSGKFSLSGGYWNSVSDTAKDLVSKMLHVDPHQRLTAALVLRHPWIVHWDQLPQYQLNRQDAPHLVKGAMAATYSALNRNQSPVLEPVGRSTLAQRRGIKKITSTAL

[8] = molecular target: T3, 5HT2C; assay: PLC activity/[3H]-IP formation, 5HT2C; type: cell-based
Description: as §3, §4, §5

[9] = molecular target: RSK 1 (Homo sapiens, UniProt Q15418); assay: Kinase affinity panel (labeled tag binding), RSK 1; conditions: at 1.0 uM CAT
Sequence of RSK 1 (Q15418 whole entry): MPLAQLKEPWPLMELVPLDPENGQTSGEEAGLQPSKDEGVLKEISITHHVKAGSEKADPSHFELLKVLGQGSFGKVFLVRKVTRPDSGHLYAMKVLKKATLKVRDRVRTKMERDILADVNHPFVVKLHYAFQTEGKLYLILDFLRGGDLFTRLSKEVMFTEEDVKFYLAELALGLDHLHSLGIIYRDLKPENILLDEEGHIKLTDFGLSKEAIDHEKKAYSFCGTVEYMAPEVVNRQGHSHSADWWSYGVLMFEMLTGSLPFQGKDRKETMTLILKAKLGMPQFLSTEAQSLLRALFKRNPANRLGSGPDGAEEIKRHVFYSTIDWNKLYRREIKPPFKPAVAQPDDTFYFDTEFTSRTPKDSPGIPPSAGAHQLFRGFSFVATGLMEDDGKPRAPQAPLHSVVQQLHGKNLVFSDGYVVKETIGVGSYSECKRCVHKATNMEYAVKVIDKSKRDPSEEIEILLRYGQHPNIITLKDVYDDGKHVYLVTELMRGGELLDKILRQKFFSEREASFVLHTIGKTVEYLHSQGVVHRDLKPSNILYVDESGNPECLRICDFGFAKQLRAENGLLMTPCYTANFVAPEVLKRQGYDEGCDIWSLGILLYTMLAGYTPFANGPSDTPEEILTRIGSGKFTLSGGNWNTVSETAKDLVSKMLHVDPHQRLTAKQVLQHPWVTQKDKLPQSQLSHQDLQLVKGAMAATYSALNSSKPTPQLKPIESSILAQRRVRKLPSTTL

[10] = molecular target: Histamine H1 receptor (Homo sapiens, UniProt P35367); assay: Histamine H1 receptor-mediated stimulation of PLC activity/[3H]-IP formation; type: cell-based; conditions: against histamine activation
Sequence of Histamine H1 receptor (P35367 whole entry): as the sequence (P35367 whole entry) above

[11] = tested on: 438 other kinases; assay: Kinase affinity panel (labeled tag binding), other kinases; conditions: at concentrations up to 1.0 uM
[12] = molecular target: RSK 4 (Homo sapiens, UniProt Q9UK32); assay: Kinase affinity panel (labeled tag binding), RSK 4; conditions: at 1.0 uM CAT
Sequence of RSK 4 (Q9UK32 whole entry): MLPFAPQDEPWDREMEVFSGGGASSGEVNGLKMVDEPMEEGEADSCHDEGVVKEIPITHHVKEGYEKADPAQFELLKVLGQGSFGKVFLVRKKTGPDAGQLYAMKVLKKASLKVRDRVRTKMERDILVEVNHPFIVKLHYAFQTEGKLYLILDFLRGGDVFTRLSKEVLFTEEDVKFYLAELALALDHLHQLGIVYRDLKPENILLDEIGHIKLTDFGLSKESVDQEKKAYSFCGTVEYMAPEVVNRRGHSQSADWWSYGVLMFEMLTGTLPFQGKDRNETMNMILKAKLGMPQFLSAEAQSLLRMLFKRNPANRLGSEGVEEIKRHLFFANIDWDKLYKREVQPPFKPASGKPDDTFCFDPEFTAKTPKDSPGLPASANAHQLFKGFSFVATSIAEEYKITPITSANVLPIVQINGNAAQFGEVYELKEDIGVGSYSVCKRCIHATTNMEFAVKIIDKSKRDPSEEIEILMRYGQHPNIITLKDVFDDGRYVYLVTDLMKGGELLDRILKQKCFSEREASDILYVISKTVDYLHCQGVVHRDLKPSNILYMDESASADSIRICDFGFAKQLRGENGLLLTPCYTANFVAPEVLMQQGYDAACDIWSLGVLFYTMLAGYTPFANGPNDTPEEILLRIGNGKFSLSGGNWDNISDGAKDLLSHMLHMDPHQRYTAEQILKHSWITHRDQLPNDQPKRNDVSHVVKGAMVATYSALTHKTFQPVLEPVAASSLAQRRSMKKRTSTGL

[13] = molecular target: RSK 3 (Homo sapiens, UniProt Q15349); assay: Kinase affinity panel (labeled tag binding), RSK 3; conditions: at 1.0 uM CAT
Sequence of RSK 3 (Q15349 whole entry): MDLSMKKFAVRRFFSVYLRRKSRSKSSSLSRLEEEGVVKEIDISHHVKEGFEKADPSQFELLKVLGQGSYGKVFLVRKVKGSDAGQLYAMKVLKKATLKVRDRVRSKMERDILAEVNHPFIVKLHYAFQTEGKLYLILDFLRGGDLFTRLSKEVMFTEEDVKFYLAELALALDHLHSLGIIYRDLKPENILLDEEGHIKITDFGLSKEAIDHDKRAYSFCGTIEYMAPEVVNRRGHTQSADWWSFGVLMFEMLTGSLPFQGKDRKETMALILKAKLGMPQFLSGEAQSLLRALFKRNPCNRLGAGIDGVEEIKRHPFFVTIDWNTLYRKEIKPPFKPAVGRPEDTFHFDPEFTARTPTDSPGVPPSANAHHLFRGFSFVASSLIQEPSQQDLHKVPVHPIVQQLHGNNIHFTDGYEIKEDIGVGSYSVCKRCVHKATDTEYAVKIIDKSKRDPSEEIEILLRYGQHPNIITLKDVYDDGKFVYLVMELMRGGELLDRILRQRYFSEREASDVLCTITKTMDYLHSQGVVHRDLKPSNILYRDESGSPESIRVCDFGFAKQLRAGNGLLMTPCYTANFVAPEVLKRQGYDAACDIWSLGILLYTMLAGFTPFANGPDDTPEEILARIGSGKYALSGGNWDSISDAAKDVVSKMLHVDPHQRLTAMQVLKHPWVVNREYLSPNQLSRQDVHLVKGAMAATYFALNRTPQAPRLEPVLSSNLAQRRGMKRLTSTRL

[14] = tested on: cocaine self-administration; conditions: rat; cited from earlier work
[15] = molecular target: T3, 5HT2C; conditions: cited from earlier work
[16] = inhibition of basal (constitutive) [3H]-IP formation

T1 sequence (P28223 whole entry): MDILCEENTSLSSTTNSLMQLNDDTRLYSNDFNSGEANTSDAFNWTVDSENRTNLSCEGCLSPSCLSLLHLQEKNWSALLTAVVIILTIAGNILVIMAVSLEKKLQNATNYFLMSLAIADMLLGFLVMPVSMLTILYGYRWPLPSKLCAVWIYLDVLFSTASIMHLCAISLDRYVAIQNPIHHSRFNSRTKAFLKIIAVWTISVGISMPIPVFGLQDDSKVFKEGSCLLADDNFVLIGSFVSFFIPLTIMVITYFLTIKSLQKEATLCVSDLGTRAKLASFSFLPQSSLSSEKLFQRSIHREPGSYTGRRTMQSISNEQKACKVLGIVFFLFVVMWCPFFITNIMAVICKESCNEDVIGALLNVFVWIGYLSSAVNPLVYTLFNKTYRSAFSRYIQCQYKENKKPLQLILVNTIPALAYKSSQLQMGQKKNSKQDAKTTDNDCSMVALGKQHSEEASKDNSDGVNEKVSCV

| Structure (SMILES) | nH [1] | Ki [1] [nM] | nH [2] | Ki [2] [nM] | nH [3] | Ki [3] [nM] | nH [4] | rate of cocaine self-administration [14] | further results |
| --- | --- | --- | --- | --- | --- | --- | --- | --- | --- |
| CN(C)[C@H]1Cc2ccccc2[C@H](C2CCCCC2)C1 [(+)-trans-CAT, (+)-(2R,4S)-4-cyclohexyl-N,Ndimethyl-1,2,3,4-tetrahydronaphthalen-2-amine] | 0.77 ± 0.20 | 78.2 ± 4 | 0.75 ± 0.12 | 1010 ± 140 | 1.20 ± 0.26 | 28.9 ± 4.4 | 1.02 ± 0.00 | – | – |
| CN(C)[C@@H]1Cc2ccccc2[C@@H](C2CCCCC2)C1 [(−)-trans-CAT, (−)-(2S,4R)-4-cyclohexyl-N,N-dimethyl-1,2,3,4-tetrahydronaphthalen-2-amine] | 1.26 ± 0.01 | 1.61 ± 0.05 | 0.81 ± 0.02 | 23.7 ± 0.79 | 1.13 ± 0.18 | 13.7 ± 2.17 | 1.01 ± 0.05 | – | Kind of functional activity, PLC activity/IP formation [5]: inverse agonist; PLC/IP formation IMAX [5]: 48.45 ± 5.50 % Basal; IC50 [5, 16]: 130 ± 20 nM; Kind of functional activity, PLC activity/IP formation [6]: inverse agonist; PLC/IP formation IMAX [6]: 56.80 ± 2.13 % Basal; IC50 [6, 16]: 250 ± 30 nM; binding to RSK 2 [7]: did not exhibit similarly significant binding; Kind of functional activity, PLC activity/IP formation [8]: inverse agonist; PLC/IP formation IMAX [8]: 60.65 ± 2.94 % Basal; IC50 [8, 16]: 190 ± 40 nM; inhibition of tag binding [9]: 20%; PLC/IP formation, kind of activity at H1 [10]: competitively antagonized; also recorded: Competitive; binding to 438 other kinases [11]: did not exhibit as significant binding; inhibition of labeled tag binding [12]: 80%; inhibition of labeled tag binding [13]: 80% |
| COc1cccc([C@H](O)C2CCN(CCc3ccc(F)cc3)CC2)c1OC [M100907] | – | – | – | – | – | – | – | does not alter responding rate | – |
| C[C@H]1CNCCc2ccc(Cl)cc21 [lorcaserin, Lorcaserin] | – | – | – | – | – | – | – | – | selectivity for activation of 5HT2C receptors over 5HT2A receptors [15]: 15 fold |
| Cc1cc2c(cc1Cl)N(C(=O)Nc1ccc(Oc3cccnc3C)nc1)CC2 [SB242084] | – | – | – | – | – | – | – | increases the rate of cocaine self-administration dose-dependently | – |
